Common to all, as to type: cell-based, human
For assay [1], the system named is α-smooth muscle actin (α-SMA). In words: TGF-β1-activated hepatic stellate cells, α-SMA gene expression (qPCR). The settings on record: TGF-β1 stimulation, 24 hours; FIG. 4. The method, then: Human primary hepatic stellate cells were seeded into 6-well plates with complete growth media (Stellate Cell Medium) for 24 hours, and then the culture media were replaced by fresh media (free of serum and growth factors) containing TGF-β1 and the compound to be tested (sodium chiglitazar) or the reference compound PPARγ/α dual agonist pioglitazone or PPARα/δ dual agonist GFT505 (both purchased from Selleck), and the cells were cultured for 24 hours. The total RNAs of the samples were extracted, and reverse transcription reaction was performed. Thereafter, a conventional PCR amplification kit (FastStart Universal SYBR@ Green Master (ROX), Roche) was used for further detection, where the PCR primers were designed with reference to the NCBI standard mRNA sequence of the target genes (Table 2). PCR reaction and detection were carried out on the ABI StepOnePlus real-time quantitative PCR instrument. By calculating the relative amount of transcripts was calculate by “Delta-Delta CT method” (Livak et al. Methods 2001), and using ACTB as the housekeeping gene for normalization and the average data of untreated human hepatic stellate cells as a reference control, the relative change folds of gene expression were obtained (FIG. 4).
(In general: Real-time PCR tracks product formation cycle by cycle.)

The subject of assay [2] is monocytic cell line THP-1. The assay can be described thus: MCP-1-induced chemotaxis of THP-1 cells (Transwell). The settings on record: MCP-1 10 ng/mL, compound 3 μmol/L; for Cell concentration in lower chamber, Mean value / Cell concentration in lower chamber, single replicates: 24 hours pretreatment, 4 hours migration; for Migration rate: solvent control + MCP-1 = 100. From the text:
In an in vitro model, migration of the monocytic cell line THP-1 induced by a certain concentration of chemokines (such as monocyte chemotactic protein 1, MCP-1), and accordingly such in vivo process was mimicked. Transwell technology, according to the manufacturer's instructions from Corning Inc., is considered that Traswell is a kind of a polycarbonate membrane filter as well as a permeable holder. The polycarbonate membrane divides a culture chamber into upper and lower ones, where the components of the culture medium in the lower chamber can affect the growth, differentiation and movement of the cells in upper chamber. Finally, the cell migration ability can be reflected by staining and counting the cells in the lower chamber.
When cultured to the log phase stage, THP-1 cells were resuspended, adjusted the concentration, and seeded in 24-well plates, followed by being pretreated with the culture media containing the compound to be tested (sodium chiglitazar) or the reference compound GFT505, pioglitazone, or PPARγ single agonist rosiglitazone (all purchased from Selleck) for 24 hours. Transwells were used according to the manufacturer's instructions. The culture media containing chemokine MCP-1 were added to the lower chamber (i.e., the bottom of the 24-well plates), and the cell suspension was added to the upper chamber and cultured for 4 hours. Later, the cells cultured on the “ceiling” surface of the polycarbonate membrane were fixed and stained with crystal violet solution (FIG. 6), and then the number of cells in the lower chamber was counted (Table 3).

Assay [3] concerns THP-1 cells. In words: Inflammatory factor gene expression (MCP-1, TNFα) in PMA-activated THP-1 cells (qPCR). The settings on record: 6 hours, FIG. 5. As to the method: Human acute monocytic leukemia mononuclear cell line (THP-1) cells were activated by a certain concentration of phorbol esters (Phorbol-12-myristate-13-acetate, PMA) and differentiated into macrophages. Through this cell model, the activating effects of sodium chiglitazar and other compounds on the expression of THP-1 related inflammatory factors were detected.
THP-1 cells were seeded into 6-well plates with complete growth media for 24 hours, and then the culture media were replaced by fresh media containing PMA and the compound to be tested (sodium chiglitazar) or the reference compound GFT505 (PPARα/δ dual agonist), and the cells were cultured for 6 hours. The total RNAs of the samples were extracted, and cDNA templates were synthesized by reverse transcription reaction (Transcriptor First Strand cDNA Synthesis Kit, Roche). Thereafter, a conventional PCR amplification kit (FastStart Universal SYBR@ Green Master (ROX), Roche) was used for semi-quantitative gene expression detection on the ABI StepOnePlus real-time quantitative PCR instrument.
The relative expression change of the target genes was obtained by using the internal reference β-actin gene (ACTB) as the standard for normalization, compared with the untreated cell samples, and the relative expression change folds were calculated (FIG. 5).

Several values for one entry are separate records, joined by “and”; a condition that tells them apart may be missing. Identical values can stand only once.

In the case of `CSc1ccc(C(=O)/C=C/c2cc(C)c(OC(C)(C)C(=O)O)c(C)c2)cc1` [GFT505], the “Effect on expression of α-smooth muscle actin” value in assay [1] is recorded as “a certain inhibitory effect”. Further, in assay [2], the “Cell concentration in lower chamber, Mean value” was 28175 cells/ml; the “Cell concentration in lower chamber, single replicates” value is 28443 cells/ml and 28511 cells/ml and 27572 cells/ml; the Migration rate is listed as 102.55%. In assay [3], the “Inhibition of phorbol esters-mediated activation of monocyte and related gene expression” value is “significantly inhibit”.

Regarding `CCc1ccc(CCOc2ccc(CC3SC(=O)NC3=O)cc2)nc1` (stereo not drawn) [pioglitazone], the “Effect on expression of α-smooth muscle actin” value in assay [1] is listed as “no effect”. In assay [2], the “Cell concentration in lower chamber, Mean value” is reported as 17514 cells/ml; the “Cell concentration in lower chamber, single replicates” value is 17529 cells/ml and 17416 cells/ml and 17597 cells/ml; the Migration rate stood at 61.80%.

These data come from patent US20210386705A1, “APPLICATION OF CHIGLITAZAR AND RELATED COMPOUNDS THEREOF” (SHENZHEN CHIPSCREEN BIOSCIENCES CO., LTD., priority 2018, published 2021).
